Earlier results, collected in patent publication US20220008494A1, “COMPOSITION FOR USE IN THE PREVENTION AND/OR SYMPTOMATIC TREATMENT OF IRRITABLE BOWEL SYNDROME” (priority 2018, published 2022).

Experiments:
[1] = tested on: carrageenan-induced edema; conditions: 10 mg/kg p.o.; from 1 to 24 h (p<0.01) compared to the control
[2] = tested on: tail withdrawal reaction time; conditions: rat, in vivo
IBS patients = conditions: 300 mg per day as adjunct to standard therapies
[3] = 1 g/day butyric acid and inulin for 1 month, IBS-D compared to IBS-C patients

In the case of `O=C(O)Cc1ccccc1Nc1c(Cl)cccc1Cl` [Diclofenac, Diclofenac sodium], the “edema (paw volume, plethysmometrically)” value [1] is given as “significant decrease”.
For `CC(C)=CCN1CCC2(C)c3cc(O)ccc3CC1C2C` (stereo not shown) [Pentazocine], the “reaction time (tail withdrawal)” value [2] is listed as “significant increase”.
In the case of `CCCC(=O)O` [butyric acid], the “condition of IBS-D patients” value (IBS-D patients; 1 g/day butyric acid (4 x 250 mg capsules) and inulin for 1 month) is given as “normalization”, the “frequency of diarrhea episodes” value (IBS-D patients; [3]) is given as “significant reduction” and the stool consistency (IBS-D patients; [3]) is given as “significant increase”. For the same compound, the “frequency of abdominal pain associated with defecation” value (IBS patients; fourth week of treatment) was “significant decrease”, the defecation-associated pain (IBS patients; twelfth week) was “also decrease” and the post-defecation stimulus (IBS patients; twelfth week) was “also decrease”. The post-prandial abdominal pain (IBS patients; twelfth week) was “also decrease” and the spontaneous abdominal pain (IBS patients; twelfth week) was “also decrease”.
